Test results from patent US7850981B2, “Immuno-adjuvant PDT treatment of metastatic tumors” (QLT, Inc., priority 1999, dated 2010).

Tested on: M1 (rhabdomyosarcoma)
Assay: M1 tumor response after PDT (verteporfin 1.0 mg/kg i.v. + light) with or without intratumoral DETOX B-SE
Assay type: in vivo, mice
Method: DETOX™ B-SE (Stable Emulsion) (LOT # PD: 071899-575-114) is a 1.0% squalene oil-in-water emulsion containing 145 μg/mL cell wall skeleton (CWS) from Mycobacterium phlei and 25 μg/mL monophosphoryl lipid A (MPL) from Salmonella minnesota R595 [Corixa Inc.]. DETOX™ B-SE was prepared according to the manufacturer's recommendations. Two concentrations were prepared by diluting DETOX™ B-SE in sterile PBS: 1:10 (7.25 μg/mL CWS, 1.25 μg/mL MPL) or 1:2.5 (29.0 μg/mL CWS, 5.0 μg/mL MPL). Aliquots (50 μL) were drawn into a tuberculin syringe with a 27 gauge needle prior to intratumoral injection.
Mice used in the experiments described below were implanted intradermally with a suspension of 2×10^4 M1 (rhabdomyosarcoma) cells on the right flank. Approximately six to ten days after implantation, the site was shaved and tumor growth measured using vernier calipers. Only mice bearing tumors 4-6 mm in diameter were selected for use.
Mice treated with PDT or PDV received 1.0 mg/kg of Verteporfin for Injection (VFI) administered intravenously by tail vein injection. Immediately after injection, the mice were placed in a darkened row of an enclosed, ventilated animal rack (condo unit) for 30 minutes. After 30 minutes, each mouse was secured in a metal holder so that the tumor was centered in a 1.0 cm diameter exposure area. The tumor site was exposed to light from an argon pump dye laser for either 14 minutes, to deliver 75 J/cm^2, or 4 minutes and 40 seconds, to deliver 25 J/cm^2. The light doses selected were chosen to deliver either a high PDT dose (75 J/cm^2) or a low PDT dose (25 J/cm 2). The exposure time in seconds was determined by dividing the light dose (J/cm^2) by light Intensity (W/cm^2).
Immediately following illumination and while still immobilized in the metal holder, mice received a single intratumoral injection of 50 μL of the 1:10 dilution DETOX™ B-SE, designed to deliver the adjuvant to the center of the tumor mass. Mice in treatment Groups 2 and 5 received 50 μL of 1:2.5 dilution following PDT. Mice in treatment Groups 3 and 6 received PDT treatment, but not adjuvant. Mice in Group 7 remained untreated and were monitored for tumor growth only. Mice in treatment Groups 1 and 4 were treated with 50 μL of 1:10 dilution following PDT.

[1] = Optimal PDT (75 J/cm^2), day 3 post-PDT
[2] = Optimal PDT (75 J/cm^2), day 7 post-PDT
[3] = Optimal PDT (75 J/cm^2), day 10 post-PDT
[4] = Optimal PDT (75 J/cm^2), day 14 post-PDT
[5] = Optimal PDT (75 J/cm^2), day 17 post-PDT
[6] = Optimal PDT (75 J/cm^2), day 20 post-PDT
[7] = Sub-optimal PDT (25 J/cm^2), day 3 post-PDT
[8] = Sub-optimal PDT (25 J/cm^2), day 7 post-PDT
[9] = Sub-optimal PDT (25 J/cm^2), day 10 post-PDT
[10] = Sub-optimal PDT (25 J/cm^2), day 14 post-PDT
[11] = Sub-optimal PDT (25 J/cm^2), day 17 post-PDT
[12] = Sub-optimal PDT (25 J/cm^2), day 20 post-PDT

Substance: benzoporphyrin derivative monoacid ring A [verteporfin]
- Survival (tumour less than 1 cm long, not euthanized) [1]: 100%
- Tumor-free mice [1]: 100%
- Survival (tumour less than 1 cm long, not euthanized) [2]: 100%
- Tumor-free mice [2]: 100%
- Survival (tumour less than 1 cm long, not euthanized) [3]: 100%
- Tumor-free mice [3]: 100%
- Survival (tumour less than 1 cm long, not euthanized) [4]: 100%
- Tumor-free mice [4]: 90%
- Survival (tumour less than 1 cm long, not euthanized) [5]: 100%
- Tumor-free mice [5]: 90%
- Survival (tumour less than 1 cm long, not euthanized) [6]: 90%
- Tumor-free mice [6]: 90%
- Survival (tumour less than 1 cm long, not euthanized) [7]: 100%
- Tumor-free mice [7]: 100%
- Survival (tumour less than 1 cm long, not euthanized) [8]: 100%
- Tumor-free mice [8]: 90%
- Survival (tumour less than 1 cm long, not euthanized) [9]: 100%
- Tumor-free mice [9]: 80%
- Survival (tumour less than 1 cm long, not euthanized) [10]: 100%
- Tumor-free mice [10]: 50%
- Survival (tumour less than 1 cm long, not euthanized) [11]: 80%
- Tumor-free mice [11]: 70%
- Survival (tumour less than 1 cm long, not euthanized) [12]: 70%
- Tumor-free mice [12]: 70%
- animals with tumors that were regressing or had regressed completely by Day 20 (low dose PDT (25 J/cm^2), adjuvant, where given, high dose (1:2.5)): 2 out of 10 animals
